Test system: NCI-H510 multicellular tumor spheroid growth, % test/control
Assay: Anticancer human tumor NCI-H510 cell line growth inhibition [Asc];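 further: spheroids exposed to agents for 7 days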;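 on viability, T/C: 100% = DMSO vehicle control wells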
Conditions: for IC50: curve of first compound; for viability, T/C: stronger effect = lower value
Outline: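 Spheroid model: tumor line + HUVEC + hMSC. Single agents and combinations; top conc. at/near clinical Cmax (10 microM if undetermined), half-log dilutions. DMSO stocks at 800-fold test concentration.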

[1] = second compound 0.1 µM, first compound 0.0316 µM
[2] = second compound 0.1 µM, first compound 0.1 µM
[3] = second compound 0.1 µM, first compound 0.316 µM
[4] = second compound 0.1 µM, first compound 1 µM
[5] = second compound 0.1 µM, first compound 3.16 µM
[6] = second compound 0.1 µM, first compound 10 µM
[7] = second compound 0.316 µM, first compound 0.0316 µM
[8] = second compound 0.316 µM, first compound 0.1 µM
[9] = second compound 0.316 µM, first compound 0.316 µM
[10] = second compound 0.316 µM, first compound 1 µM
[11] = second compound 0.316 µM, first compound 3.16 µM
[12] = second compound 0.316 µM, first compound 10 µM
[13] = second compound 1 µM, first compound 0.0316 µM
[14] = second compound 1 µM, first compound 0.1 µM
[15] = second compound 1 µM, first compound 0.316 µM
[16] = second compound 1 µM, first compound 1 µM
[17] = second compound 1 µM, first compound 3.16 µM
[18] = second compound 1 µM, first compound 10 µM
[19] = second compound 3.16 µM, first compound 0.0316 µM
[20] = second compound 3.16 µM, first compound 0.1 µM
[21] = second compound 3.16 µM, first compound 0.316 µM
[22] = second compound 3.16 µM, first compound 1 µM
[23] = second compound 10 µM, first compound 0.0316 µM
[24] = second compound 10 µM, first compound 0.1 µM
[25] = second compound 10 µM, first compound 0.316 µM
[26] = second compound 10 µM, first compound 1 µM

`NC(=O)C(=Cn1cnc(-c2cc(C(F)(F)F)cc(C(F)(F)F)c2)n1)c1cncnc1` + CNC(C)C(=O)NC1CN(S(=O)(=O)c2cccc(S(=O)(=O)N3CCC4CCC(C(=O)NC(c5ccccc5)c5ccccc5)N4C(=O)C(NC(=O)C(C)NC)C3)c2)CCC2CCC(C(=O)NC(c3ccccc3)c3ccccc3)N2C1=O gave an IC50 (second compound 0.01 µM) greater than 300 nM, an IC50 (second compound 0.0316 µM) greater than 300 nM and an IC50 (second compound 0.1 µM) greater than 300 nM. It also gave an IC50 (second compound 0.316 µM) greater than 300 nM, an IC50 (second compound 1 µM) greater than 300 nM and a viability, T/C (second compound 0.01 µM, first compound 0.000949 µM) of 104%. It also gave a viability, T/C (second compound 0.01 µM, first compound 0.003 µM) of 112%, a viability, T/C (second compound 0.01 µM, first compound 0.00949 µM) of 104% and a viability, T/C (second compound 0.01 µM, first compound 0.03 µM) of 92.3%. For the same compound, the viability, T/C (second compound 0.01 µM, first compound 0.0949 µM) was 110%, the viability, T/C (second compound 0.01 µM, first compound 0.3 µM) was 101% and the viability, T/C (second compound 0.0316 µM, first compound 0.000949 µM) was 92.3%. It also gave a viability, T/C (second compound 0.0316 µM, first compound 0.003 µM) of 101%, a viability, T/C (second compound 0.0316 µM, first compound 0.00949 µM) of 102% and a viability, T/C (second compound 0.0316 µM, first compound 0.03 µM) of 108%. The viability, T/C (second compound 0.0316 µM, first compound 0.0949 µM) was 112%, the viability, T/C (second compound 0.0316 µM, first compound 0.3 µM) was 108% and the viability, T/C (second compound 0.1 µM, first compound 0.000949 µM) was 110%. It also gave a viability, T/C (second compound 0.1 µM, first compound 0.003 µM) of 94.5%, a viability, T/C (second compound 0.1 µM, first compound 0.00949 µM) of 107% and a viability, T/C (second compound 0.1 µM, first compound 0.03 µM) of 110%. For the same compound, the viability, T/C (second compound 0.1 µM, first compound 0.0949 µM) was 112%, the viability, T/C (second compound 0.1 µM, first compound 0.3 µM) was 96.8% and the viability, T/C (second compound 0.316 µM, first compound 0.000949 µM) was 115%. It also gave a viability, T/C (second compound 0.316 µM, first compound 0.003 µM) of 116%, a viability, T/C (second compound 0.316 µM, first compound 0.00949 µM) of 109% and a viability, T/C (second compound 0.316 µM, first compound 0.03 µM) of 87.3%. The viability, T/C (second compound 0.316 µM, first compound 0.0949 µM) was 109%, the viability, T/C (second compound 0.316 µM, first compound 0.3 µM) was 95.9% and the viability, T/C (second compound 1 µM, first compound 0.000949 µM) was 93.7%. It also gave a viability, T/C (second compound 1 µM, first compound 0.003 µM) of 107%, a viability, T/C (second compound 1 µM, first compound 0.00949 µM) of 93.6% and a viability, T/C (second compound 1 µM, first compound 0.03 µM) of 104%. It also gave a viability, T/C (second compound 1 µM, first compound 0.0949 µM) of 105% and a viability, T/C (second compound 1 µM, first compound 0.3 µM) of 92.9%.

`O=C(c1cc(Cc2n[nH]c(=O)c3ccccc23)ccc1F)N1CCN(C(=O)C2CC2)CC1` + Cc1c(S(C)(=O)=O)c(-c2cc(F)cc(N3CCN(c4ccc(NS(=O)(=O)c5ccc(NC(CCN6CCC(C(=O)OCCCP(=O)(O)O)CC6)CSc6ccccc6)c(S(=O)(=O)C(F)(F)F)c5)cc4)CC3)c2)c(-c2ccc(Cl)cc2)n1C(C)C was tested, and the IC50 (second compound 0.1 µM) was 1610 nM, the IC50 (second compound 0.316 µM) was 1520 nM and the IC50 (second compound 1 µM) was 1490 nM. It also gave an IC50 (second compound 3.16 µM) of 1160 nM, an IC50 (second compound 10 µM) of 1320 nM and a viability, T/C [1] of 94.8%. For the same compound, the viability, T/C [2] was 101%, the viability, T/C [3] was 107% and the viability, T/C [4] was 74.1%. The viability, T/C [5] was 13.4%, the viability, T/C [6] was 18.7% and the viability, T/C [7] was 124%. For the same compound, the viability, T/C [8] was 89.1%, the viability, T/C [9] was 106% and the viability, T/C [10] was 73.5%. It also gave a viability, T/C [11] of 8.58%, a viability, T/C [12] of 3.25% and a viability, T/C [13] of 94.8%. The viability, T/C [14] was 112%, the viability, T/C [15] was 93.2% and the viability, T/C [16] was 69.5%. It also gave a viability, T/C [17] of 14.3%, a viability, T/C [18] of 3.96% and a viability, T/C [19] of 111%. The viability, T/C [20] was 121%, the viability, T/C [21] was 87.1% and the viability, T/C [22] was 63.3%. The viability, T/C (second compound 3.16 µM, first compound 3.16 µM) was 4.95%, the viability, T/C (second compound 3.16 µM, first compound 10 µM) was 3.34% and the viability, T/C [23] was 81.6%. The viability, T/C [24] was 94.5%, the viability, T/C [25] was 81.5% and the viability, T/C [26] was 65.2%. For the same compound, the viability, T/C (second compound 10 µM, first compound 3.16 µM) was 1.71% and the viability, T/C (second compound 10 µM, first compound 10 µM) was 1.74%.

In the case of `C=CC(=O)N1CCN(c2nc(=O)n(-c3c(C)ccnc3C(C)C)c3nc(-c4c(O)cccc4F)c(F)cc23)C(C)C1` (stereo not given) + CNC(C)C(=O)NC1CN(S(=O)(=O)c2cccc(S(=O)(=O)N3CCC4CCC(C(=O)NC(c5ccccc5)c5ccccc5)N4C(=O)C(NC(=O)C(C)NC)C3)c2)CCC2CCC(C(=O)NC(c3ccccc3)c3ccccc3)N2C1=O, the IC50 (second compound 0.01 µM) is reported as greater than 10000 nM, the IC50 (second compound 0.0316 µM) is reported as greater than 10000 nM and the IC50 (second compound 0.1 µM) is reported as greater than 10000 nM. It also gave an IC50 (second compound 0.316 µM) greater than 10000 nM, an IC50 (second compound 1 µM) greater than 10000 nM and a viability, T/C (second compound 0.01 µM, first compound 0.0316 µM) of 115%. The viability, T/C (second compound 0.01 µM, first compound 0.1 µM) was 101%, the viability, T/C (second compound 0.01 µM, first compound 0.316 µM) was 102% and the viability, T/C (second compound 0.01 µM, first compound 1 µM) was 115%. The viability, T/C (second compound 0.01 µM, first compound 3.16 µM) was 113%, the viability, T/C (second compound 0.01 µM, first compound 10 µM) was 115% and the viability, T/C (second compound 0.0316 µM, first compound 0.0316 µM) was 105%. It also gave a viability, T/C (second compound 0.0316 µM, first compound 0.1 µM) of 108%, a viability, T/C (second compound 0.0316 µM, first compound 0.316 µM) of 95.6% and a viability, T/C (second compound 0.0316 µM, first compound 1 µM) of 119%. The viability, T/C (second compound 0.0316 µM, first compound 3.16 µM) was 104%, the viability, T/C (second compound 0.0316 µM, first compound 10 µM) was 110% and the viability, T/C [1] was 112%. For the same compound, the viability, T/C [2] was 95.8%, the viability, T/C [3] was 102% and the viability, T/C [4] was 91.9%. It also gave a viability, T/C [5] of 105%, a viability, T/C [6] of 106% and a viability, T/C [7] of 110%. The viability, T/C [8] was 113%, the viability, T/C [9] was 102% and the viability, T/C [10] was 95.8%. It also gave a viability, T/C [11] of 104%, a viability, T/C [12] of 93.3% and a viability, T/C [13] of 96.5%. It also gave a viability, T/C [14] of 105%, a viability, T/C [15] of 107% and a viability, T/C [16] of 101%. It also gave a viability, T/C [17] of 98.2% and a viability, T/C [18] of 110%.

In the case of `CCN1CCN(Cc2ccc(Nc3ncc(F)c(-c4cc(F)c5nc(C)n(C(C)C)c5c4)n3)nc2)CC1` + Cc1c(S(C)(=O)=O)c(-c2cc(F)cc(N3CCN(c4ccc(NS(=O)(=O)c5ccc(NC(CCN6CCC(C(=O)OCCCP(=O)(O)O)CC6)CSc6ccccc6)c(S(=O)(=O)C(F)(F)F)c5)cc4)CC3)c2)c(-c2ccc(Cl)cc2)n1C(C)C, the IC50 (second compound 0.1 µM) is reported as greater than 1000 nM, the IC50 (second compound 0.316 µM) is reported as greater than 1000 nM and the IC50 (second compound 1 µM) is reported as 651 nM. It also gave an IC50 (second compound 3.16 µM) of 640 nM, an IC50 (second compound 10 µM) of 408 nM and a viability, T/C (second compound 0.1 µM, first compound 0.00316 µM) of 112%. It also gave a viability, T/C (second compound 0.1 µM, first compound 0.01 µM) of 91.2%, a viability, T/C [1] of 98% and a viability, T/C [2] of 75.1%. The viability, T/C [3] was 86.1%, the viability, T/C [4] was 103% and the viability, T/C (second compound 0.316 µM, first compound 0.00316 µM) was 104%. For the same compound, the viability, T/C (second compound 0.316 µM, first compound 0.01 µM) was 94.8%, the viability, T/C [7] was 102% and the viability, T/C [8] was 108%. For the same compound, the viability, T/C [9] was 88.3%, the viability, T/C [10] was 87.8% and the viability, T/C (second compound 1 µM, first compound 0.00316 µM) was 98.4%. It also gave a viability, T/C (second compound 1 µM, first compound 0.01 µM) of 90.7%, a viability, T/C [13] of 76.2% and a viability, T/C [14] of 74.3%. The viability, T/C [15] was 74.9%, the viability, T/C [16] was 38.2% and the viability, T/C (second compound 3.16 µM, first compound 0.00316 µM) was 69.6%. The viability, T/C (second compound 3.16 µM, first compound 0.01 µM) was 93%, the viability, T/C [19] was 107% and the viability, T/C [20] was 112%. The viability, T/C [21] was 61.2%, the viability, T/C [22] was 42.9% and the viability, T/C (second compound 10 µM, first compound 0.00316 µM) was 104%. It also gave a viability, T/C (second compound 10 µM, first compound 0.01 µM) of 102%, a viability, T/C [23] of 78.2% and a viability, T/C [24] of 90.4%. It also gave a viability, T/C [25] of 56.9% and a viability, T/C [26] of 18.8%.

From PubChem BioAssay AID1963438 (Molecular Pharmacology Branch, DTP, NCI, 2024)
